PMC10222203 (Pharmaceutics, 2023)
“And” between values parts separate entries of the source, which are not always exact repeats. Equal entries are not always repeated. Where two headings read alike, the source gives them in different places.

Columns and labels:
[1] = rat; for Kp at 4 h / Kp uu: in vivo; for Kp at 4 h / Total brain-to-plasma concentration ratio, Kp,brain: 0.5 mg/kg, 4 h infusion, total dose 0.5 mg/kg; for Kp at 4 h: Total brain-to-plasma concentration ratio, Kp,brain; for Kp at 4 h / Kp uu / Kp,uu,brain as percent equilibrating across the BBB / Total brain-to-plasma concentration ratio, Kp,brain / Unbound brain-to-plasma concentration ratio, Kp,uu,brain: steady state; for Kp uu: Unbound brain-to-plasma concentration ratio, Kp,uu,brain; for Kp uu / Unbound brain-to-plasma concentration ratio, Kp,uu,brain: Kp,brain/(fu,plasma × Vu,brain); for Total steady-state plasma concentration, Cplasma,ss: listed in Table S3
Description: In order to assure the accurate assessment of the extent of BBB transport and to minimize the use of animals, the achievement of steady-state conditions of total plasma concentration and equilibration across the blood–brain interface are critical. […] The infusion was administered through the catheter placed in the femoral vein. Blood (200 µL) was sampled from the catheter in the femoral artery at 1, 2, and 3 h into heparinized tubes to ensure that steady-state conditions were obtained in plasma. At 4 h, blood was sampled through heart puncture using EDTA vacutainers (BD, Eysins, Switzerland), and the whole brain was collected. The blood samples were centrifuged, and plasma was collected. All samples were immediately frozen on dry ice and then kept at −20 °C pending analysis.
The in vivo total brain-to-plasma concentration ratio, Kp,brain, was studied by measuring steady-state concentrations in plasma and the total amount in the brain (Equation (1)). (1) Kp,brain=Abrain/Cplasma where Abrain is the total amount of peptide in the brain calculated using Equation (2), including compensation for the residual cerebral blood, and Cplasma is total plasma concentration (µg/mL).
The unbound brain-to-plasma ratio, Kp,uu,brain, was calculated using Equation (13) according to the CMA [37], where Kp,brain is the total brain-to-plasma ratio, fu,plasma is the unbound fraction in plasma as measured with equilibrium dialysis, and Vu,brain is the unbound volume of distribution in brain measured with the brain slice technique. (13) Kp,uu,brain=Kp,brain/fu,plasma×Vu,brain

in vivo = details: rat; for Half-life, t½ / half-life: 10 min intravenous infusion; for Half-life, t½ / AUC(0-inf) / Vd / clearance / half-life: 0.5 mg/kg; for AUC(0-inf) / Vd / clearance / half-life: iv; for half-life: t½
Description: Since previous pharmacokinetic data were extremely sparse, a pilot study was performed in rats (n = 2), and simulations were performed in Berkeley Madonna (version 8.3.18 for Windows, Berkeley, CA, USA), defining suitable dose and sampling intervals from the parameters obtained in the pilot study. The surgical implantation of catheters made of polyethylene (PE50) in the femoral vein and artery for dosing of peptide and sampling of blood, respectively, was performed the day before experiments under isoflurane anaesthesia. The animals were then housed in a CMA120 system (CMA, Solna, Sweden) for freely moving animals with ad libitum access to food and water. […] All samples were added to heparinized low-binding Eppendorf tubes. The blood samples were centrifuged, and plasma was transferred to new Eppendorf tubes and immediately frozen at −20 °C. After bioanalysis, the area under the plasma concentration–time curve (AUC) was determined by the trapezoidal rule with extrapolation to time infinity followed by calculation of systemic clearance (CL), apparent volume of distribution (Vd), and half-life (t½).

[2] = rat, Kp,uu,cell
Description: (§1) The brain slice assay was performed according to previously published protocols. Three animals per study group were investigated. All glassware used in the brain slice experiments was silanized using dimethyldichlorosilane in heptane to avoid non-specific binding of the cyclic peptides to glass. In short, the silanization solution was added to the glassware and left there for one hour, after which the glassware was rinsed with methanol and then placed in a heating cabinet to cure. Slicing was performed with a Leica VT1200 microtome slicer (Leica Microsystems, Wetzlar, Germany). […] At the end of the incubation, two 200 µL samples of aECF were taken and mixed with blank brain homogenate (1:4, w:v) for assessment of unbound buffer concentration, Cbuffer (nanomoles per mL). Thereafter, the brain slices were individually sampled, carefully dried on filter paper, weighed, and homogenized in aECF (1:9, w:v) to determine the total amount of drug in the slice, Aslice (nanomoles per g brain). The density of brain tissue was assumed to be 1 g/mL. The key assumption of the assay is achievement of equilibrium during 5 h incubation, with Cbuffer being equal and representing unbound brain slice interstitial concentration. Samples of aECF (200 µL) were also taken from the scintillation vial without brain slices at the start and at the end of the incubation to determine the relative recovery and thermostability of the peptides. The unbound volume of distribution in brain, Vu,brain (mL/g brain), was calculated using Equation (3). (3) Vu,brain =Aslice−Vi×Cbuffer/Cbuffer(1−Vi) where Vi is the volume of buffer film that coats the slice and equals to 0.094 mL/g brain [39].
(§2) To study the potential mechanism of intracellular distribution of the peptides, several exploratory experiments were performed (Figure 2a). […] In addition, the role of endocytosis and pH partitioning-driven distribution was investigated. The slices were pre-incubated for 30 min with the blockers before the addition of the peptides. Dynasore was used as an inhibitor of dynamin-dependent endocytosis, which is involved in both clathrin and caveolin vesicle formation (Figure 3a). […] Due to high cytotoxicity, the concentration of […] was chosen based on previous studies.
(§3) The unbound intracellular-to-extracellular concentration ratio, Kp,uu,cell, was calculated according to Equation (14) by combining the brain slice derived, Vu,brain, with the measurement of brain tissue binding, fu,brain, from the tissue homogenate study. This allows elucidation of whether the uptake into the brain cells is driven mainly by passive processes and intracellular binding and/or partitioning, such as lysosomal trapping, or by active uptake into the cells. (14) Kp,uu,cell=fu,brain×Vu,brain

brain slices = system: brain slices
Description: as §1, §2, §3

[3] = rat, tissue homogenate
plasma proteins = details: undiluted rat plasma, 1 µM, equilibrium dialysis 6 h 37 °C
Description: Peptide binding to plasma proteins, brain tissue homogenate, and lung tissue homogenate as well as to neuronal and astrocyte cell culture homogenates was investigated using equilibrium dialysis [47]. Undiluted plasma and brain from three peptide-naïve rats were used in the experiment. The brain homogenate was prepared by homogenizing 1 part brain with 4 parts of phosphate-buffered saline (PBS, pH 7.4). […] Semi-permeable membranes with a molecular weight cut-off of 12–14 kDa were used and placed in an HTD96b apparatus (HTDialysis, Gales Ferry, CT, USA). The undiluted plasma and respective homogenates were spiked with individual peptide to a concentration of 1 µM and were dialyzed against PBS (pH 7.4). Five technical replicates were prepared per biological replicate. The experiment was run for 6 h at 37 °C in a MaxQ4450 shaker (Thermo Fisher Scientific, NinoLab, Sweden) at 200 rpm. […] Aliquots (80 µL) were taken from the buffer and plasma/homogenate sides. To compensate for any differences in matrix during bioanalysis, the plasma and homogenate samples were mixed with equal volumes of blank buffer, and the buffer samples were mixed with an equal volume of relevant blank plasma/homogenate. Spiked plasma and respective homogenate samples were incubated to control for relative recovery and thermal stability of the peptides in respective matrices.
The unbound fraction in undiluted plasma was calculated using Equation (5), where Cbuffer is the unbound concentration of peptide in the buffer and Cplasma is the total concentration of peptide in plasma at 6 h. The binding of peptide in various homogenates was assessed in two steps. First, the fraction of unbound peptide in the diluted homogenate, fu,h,D, was calculated using Equation (6), where Chomogenate is the total concentration of peptide in respective homogenate at 6 h. Second, the correction for the dilution was implemented as described in Equation (7), where D is the dilution factor used in the preparation [47]. D was 5 for brain and lung homogenates and on average 35.3 for the cell culture studies, as determined based on the total protein content and the total volume of lysate. (5) fu,plasma=Cbuffer/Cplasma (6) fu,h,D=Cbuffer/Chomogenate (7) fu,tissue/cell=1/D/((1/fu,h,D )−1)+1/D

[4] = cell lysates vs brain homogenate, on average
[5] = set-up: method as in PubChem; details: estimates from PubChem; ref PubChem; cited from earlier work
[6] = Unbound intracellular-to-extracellular (interstitial) concentration ratio, brain slices 37 °C, fu,brain × Vu,brain
[7] = rat brain slices, 200 nM, 5 h, 37 °C

SMILES | Kp at 4 h [1] | Kp uu [1] | Kp,uu,brain as percent equilibrating across the BBB [1] [%] | Total brain-to-plasma concentration ratio, Kp,brain [1] | Unbound brain-to-plasma concentration ratio, Kp,uu,brain [1] | Total steady-state plasma concentration, Cplasma,ss [1] [nmol/L] | Half-life, t½ (in vivo; plasma) [min] | Kp uu [2, 6] | Unbound volume of distribution in brain, Vu,brain (brain slices; brain slices incubated at 4 °C) [mL/g brain] | Unbound volume of distribution in brain, Vu,brain (brain slices; [7]) | Fraction unbound in plasma, fu,plasma (plasma proteins) | also measured
CC(C)C[C@@H]1NC(=O)CNC(=O)[C@H](CC(N)=O)NC(=O)[C@H](CCCNC(=N)N)NC(=O)[C@H]([C@@H](C)O)NC(=O)[C@@H]2CSSC[C@@H]3NC(=O)[C@H]([C@@H](C)O)NC(=O)CNC(=O)CNC(=O)[C@H](C(C)C)NC(=O)[C@@H]4CSSC[C@H](NC(=O)[C@H]([C@@H](C)O)NC(=O)[C@H](CSSC[C@H](NC(=O)[C@H](C(C)C)NC(=O)[C@@H]5CCCN5C1=O)C(=O)NCC(=O)N[C@@H](CCC(=O)O)C(=O)N[C@@H]([C@@H](C)O)C(=O)N4)NC(=O)CNC(=O)[C@@H]1CCCN1C(=O)[C@H]([C@@H](C)O)NC(=O)[C@H](CC(N)=O)NC3=O)C(=O)N[C@@H](CO)C(=O)N[C@@H](Cc1c[nH]c3ccccc13)C(=O)N1CCC[C@H]1C(=O)N[C@@H](C(C)C)C(=O)N2 [Kalata B1] | 0.23 | 0.005 | 0.5 | 0.234 ± 0.083 | 0.00479 ± 0.0023 | 1096 | 35.8 ± 3.52 | 9.7 | 1.12 | 152 ± 29.9 mL/g brain | 0.299 ± 0.095 | AUC(0-inf) (in vivo; in vivo): 2800 ng·h/mL; Vd (in vivo; in vivo): 0.322 ± 0.0887 L/kg; clearance (in vivo; in vivo): 1.6 ± 0.396 mL/min/kg; half-life (in vivo; in vivo, plasma): 35 min; Kp uu ([2]; brain slices incubated at 4 °C): 0.0721; Reduction in Kp,uu,cell from 37 °C to 4 °C (brain slices; brain slices): 138 fold; Intra-brain distribution (Vu,brain) relative to SFTI-1 (brain slices; brain slices 37 °C): ca. 350 fold; Unbound intracellular-to-extracellular (interstitial) concentration ratio, Kp,uu,cell (brain slices; brain slices 37 °C, fu,brain × Vu,brain): 9.73 ± 3.35; Reduction in Vu,brain after pre-incubation with dynasore (brain slices; brain slices, dynasore 50 µM, 30 min pre-incubation): 23%; Unbound volume of distribution in brain, Vu,brain (brain slices; rat brain slices, 200 nM, 5 h, 37 °C, listed as kalata B1): 152 mL/g brain; fraction unbound [3]: 0.0377 ± 0.0079
CC[C@H](C)[C@@H]1NC(=O)[C@@H]2CCCN2C(=O)[C@@H]2CCCN2C(=O)[C@H]([C@@H](C)CC)NC(=O)[C@H](CO)NC(=O)[C@H](CCCCN)NC(=O)[C@H]([C@@H](C)O)NC(=O)[C@@H]2CSSC[C@H](NC1=O)C(=O)N[C@@H](Cc1ccccc1)C(=O)N1CCC[C@H]1C(=O)N[C@@H](CC(=O)O)C(=O)NCC(=O)N[C@@H](CCCNC(=N)N)C(=O)N2 [SFTI-1, sunflower trypsin inhibitor-1] | 0.06 | 0.13 | 13 | 0.0618 ± 0.0318 | 0.129 ± 0.0698 | 400 | 20.3 ± 3.50 | 0.415 ± 0.079 | 0.56 | 0.436 mL/g brain and 0.436 ± 0.064 mL/g brain | 0.936 ± 0.038 | fu,cell fold lower than fu,brain [4]: 3 fold; Total plasma concentration post 120 min time point (below the quantification limit) (in vivo; 10 min infusion 0.5 mg/kg): < 5 ng/mL; AUC(0-inf) (in vivo; plasma): 1290 ng·h/mL; Vd (in vivo; plasma): 0.191 ± 0.0344 L/kg; clearance (in vivo; plasma): 1.82 ± 0.48 mL/min/kg; half-life (in vivo; plasma): 20 min; Predicted net charge [5]: 0; Kp uu ([2]; mean values across experimental conditions, brain slices, 4 °C, inhibition of endocytosis, or dissipation of the pH gradient): 0.3 to 0.47
